Laboratory results from patent US6479283B1, “Stimulation, culture and preservation of pancreatic cells” (Ascendia AB, priority 1997, dated 2002).

Assays:
[1] = tested on: naked mice with induced diabetes; assay: Transplantation of cultured ICC in naked mice with alloxan-induced diabetes; type: in vivo; conditions: second series, 1×3 μl ICC; 1 mM DG added to HPMC culture medium
Text: Transplantation in Naked Mice with Induced Diabetes
Diabetes was induced in naked mice by injection of alloxan (Dunn, J S, and McLetchie, Lancet 2 (1943) 384; Boquist L, Acta Pathol. Microbiol. Scand., Sect. A, 88 (1980) 201) resulting in […] within a few days indicated by blood glucose levels >25 mm. After about one week intact ICCs from other mice of this strain were transplanted to the […] anaesthetized animals. An incision was made in the abdominal wall and the left kidney was mobilized. A small hole was made in the kidney's thin […] capsule and a pipette containing ICC was carefully inserted therethrough under the capsule. The ICCs were deposited within the capsule, the pipette withdrawn and the abdominal wall and skin sutured.
In a first series of experiments an ICC standard dose of 2×3 μl corresponding to 600 ICC was injected. Three types of ICCs were compared:
(1) control, i.e. ICC islets cultured in medium RPMI 1640+10 mm nicotine amide+10% human serum (HS);
(2) ICC islets cultured in medium RPMI 1640+10 mm nicotine amide+10% human serum (HS)+9% of 1.5% HPMC in saline; […]
Numbers in square brackets indicate number of animals. […] Blood glucose was determined on day 7 and in weekly intervals thereafter. The arrow indicates nephrectomy, i.e., the kidney with ICC transplant was removed and blood glucose was determined one week thereafter. […]

[2] = tested on: fibroblast growth in ICC cultures; assay: Fibroblast growth in ICC cultures; type: cell-based, porcine; conditions: 1 mM DG
Text: (§1) (3) ICC islets cultured in medium RPMI 1640+10 mm nicotine amide+10% human serum (HS)+9% of 1.5% HPMC in saline+1 mm 2-deoxyglucose (DG).

[3] = tested on: fetal porcine ICCs; assay: Differentiation of fetal porcine ICCs (glucose stimulated release of insulin), separate experiments; type: cell-based
Text: as §1

Compound: O=CC[C@@H](O)[C@H](O)[C@H](O)CO [DG, 2-deoxyglucose]
- Effect of DG on the reduction of blood glucose levels [1]: clearly beneficial effect on the reduction of blood glucose levels
- Fibroblast growth [2]: reduces fibroblast growth
- Differentiation giving rise to glucose stimulated release of insulin [3]: does not affect the differentiation
